Values of other authors, collected in US5621142A, “Aminoalkylcyclopropane derivatives” (Asahi Kasei Kogyo Kabushiki Kaisha, priority 1994, dated 1997).

Legend:
[1] = test system: synaptosomal uptake of norepipephrine; conditions: Neuropharmacology, Vol. 24, No. 12, 1211-1219, 1985
[2] = test system: synaptosomal uptake of 5-HT; conditions: Neuropharmacology, Vol. 24, No. 12, 1211-1219, 1985

In the case of `CCN(CC)C(=O)C1(c2ccccc2)CC1CN.Cl` (centres unmarked) [compound (A), 1-phenyl-1-diethylaminocarbonyl-2-aminomethyl-cyclopropane hydrochloride], the “activity to inhibit the synaptosomal uptake of norepipephrine” value [1] is given as “has an activity to inhibit the synaptosomal uptake of norepipephrine and 5-HT” and the “activity to inhibit the synaptosomal uptake of 5-HT” value [2] is given as “has an activity to inhibit the synaptosomal uptake of norepipephrine and 5-HT”.
